{
  "source": "paper PMC6155913",
  "about": "“Reaction of 3-Amino-1,2,4-Triazole with Diethyl Phosphite and Triethyl Orthoformate: Acid-Base Properties and Antiosteoporotic Activities of the Products” (Molecules : A Journal of Synthetic Chemistry and Natural …, 2017)",
  "key": {"[1]": {"settings": "cited from earlier work"}, "[2]": {"assay": "Protonation constants by potentiometric titration", "format": "physicochemical", "settings": "Potentiometry, 0.1 M KCl, 25 °C, [L] = 1 × 10^−3 M, error 1σ", "protocol": "(§1) The acid-base properties of compounds 1 and 2 were determined to understand their behaviour in aqueous solutions. These studies were performed using potentiometry prompted by pH-UV titration studies and, for compound 1, pH*-NMR titration studies (pH* = pH uncorrected for the isotopic effect).\nThe titration studies of the compounds were carried out in double-distilled water using a Metrohm 809 Titrando system equipped with a combined glass electrode (Metrohm 6.0224.100) which was calibrated daily for hydrogen concentration using HCl (Merck, Warsow, Poland) (0.004 M) according to the procedure of Irving et al.. The ionic strength was fixed at I = 0.1 M with KCl (POCh). Alkali, CO2-free 0.1017 M KOH solution (POCh) was standardized by titration with potassium hydrogen phthalate (Merck). The ionic product of water under the experimental conditions was 10^−13.77 mol^2·dm^−6. The purity and exact concentration of each ligand were determined by the method of Gran. The titrations were carried out on 2.0 mL samples in a thermostatted cell at 25 ± 0.2 °C under a stream of Ar. The HYPERQUAD2013 computer program was applied to calculate the protonation constants. Triplicate titrations of each ligand (177–222 points) in a concentration of 1.0 × 10^−3 mol·dm^−3 were performed and used for the calculations. The distribution curves of the protonated species of the compounds (marked as L) as a function of pH were calculated using the HySS2009 program."}, "[3]": {"tested_on": "mouse macrophage-like J774E cells", "assay": "Antiproliferative activity, MTT assay", "format": "cell-based", "settings": "J774E macrophages, 72 h exposure", "protocol": "To screen for potential antiosteoporotic activity of the bisphosphonates, their antiproliferative activity towards in vitro cell cultures was determined. J774E macrophages and osteoclasts are both derived from haematopoietic lineage and are highly endocytic and capable of demineralizing bone particles. Therefore, they are models for studies on the influence of bisphosphonates on the proliferation and activity of […]. For this purpose, mouse macrophage-like J774E cells, originating from the same precursors as the osteoclasts, were used. Such cells are well recognized for being sensitive to bisphosphonates, which likely act by inducing apoptosis in the cells. The J744E cell line was obtained from a cell bank at the Ludwik Hirszfeld Institute of Immunology and Experimental Therapy, Polish Academy of Sciences.\nThis experiment was performed according to a previously published procedure. To use the cell line, it is necessary to first thaw the cells using a water bath at 37 °C and gentle stirring. The cells were placed into the culture medium. This line was passaged 2 times a week in RPMI (growth medium consisting of 10% FBS, 100 μg/mL streptomycin, 100 U/mL penicillin and 2 mM glutamine) in Petri dishes. The cell growth was monitored under a microscope, and part of the material was used in the next stage of the experiment. Then, the cells were separated from the bottom (the surface proteins present on the plasma membrane allowing adhesion were destroyed) and were collected from the culture vessel. Then, in a Bürker chamber, the cell density was counted using a drop of cell suspension in a mixture ratio of 1:1 with trypan blue.\nThen, a 96-well microtiter plate assay was performed with 100 μL of cells (5 × 10^4/mL) in a cultivation solution followed, after 24 h, by the addition of 100 μL of a solution of the tested compound (10^−3, 10^−4, 10^−5, or 10^−6 M) in the same medium. Plates were incubated at 37 °C in a humidified atmosphere saturated with 5% CO2. The in vitro cytotoxicities of all agents were examined by colorimetric MTT assay after 72 h of exposure of the cultured cells to varying concentrations of the tested compounds [32]. Briefly, 20 μL of the MTT solution (MTT: 3-(4,5-dimethylthiazol-2-yl)-2,5-diphenyl tetrazolium bromide) was added to each well and incubated for 4 h. After the incubation period was completed, 80 μL of the lysing mixture was added to each well (lysing mixture: 225 mL dimethylformamide, 67.5 g sodium dodecyl sulfate and 275 mL of distilled water). The optical densities of the samples were determined after 24 h using a Multiskan RC photometer (Labsystems, Helsinki, Finland) at 570 nm."}, "[4]": {"assay": "Protonation constants by pH-UV (UV-Vis) titration", "format": "physicochemical", "settings": "0.1 M KCl, 25 °C, [L] = 7 × 10^−5 M, error 1σ", "protocol": "as §1\nThe results of the potentiometric studies are supported by spectroscopic determination of the pK values of the studied compounds. The results, obtained from electronic spectra generated in the HypSpec program for the detected species, are presented in Table 2 and Figure S1. […] For compound 1, the band at approximately 215 nm was already present under a very acidic pH value (pH 1.57) (Figure 4). This band is assigned to the protonated 1,2,4-triazole. The band underwent a bathochromic shift to 230 nm when the pH rises, which is assigned to the H4L → H3L^− + H^+ deprotonation process at a pK4 of 4.22 or 4.16 (estimated potentiometrically or spectrophotometrically, respectively). This was the biggest change in absorption for the spectroscopic determination by UV spectrophotometry. This change was the reason for assigning the pK4 value to the deprotonation of 1,2,4-triazole. Adequate changes occur for the spectra of compound 2. […] Generally, spectroscopic titrations (see Figure S23 Supplementary Materials) are in a good agreement with potentiometric titrations and provide similar pK values.\nAbsorption spectra for the compounds were collected using a Varian Cary 50 spectrophotometer (Varian, Mulgrave, Victoria, Australia) in Quartz Hellma curvets with a 1 cm optical path. The solutions were prepared by dissolving the appropriate concentration of ligands ([L] = 7 × 10^−5 mol·dm^−3) in 0.004 M HCl with 0.1 M ionic strength (KCl). The background electrolyte was used as a baseline reference. Solution pH was changed manually by adding small amounts of concentrated potassium hydroxide and checked the pH using the 913 Metrohm pH meter equipped with a combined glass electrode (Metrohm 6.0224.100, Herisau, Switzerland). The protonation constants and spectral deconvolution were refined using the least squares fitting program HypSpec. Factor analysis by the HypSpec software (http://www.hyperquad.co.uk/) was implemented to characterize the number of species present in the solution."}},
  "note": "Where two headings read alike, the source gives them in different places.",
  "data": [
    {"smiles": "c1c[nH]nn1", "note": "[1,2,3-triazole]", "values": [
      {"measurement": "pK of triazole", "setting": "[1]; unsubstituted triazole", "result": 9.26}
    ]},
    {"smiles": "c1nc[nH]n1", "note": "[1,2,4-triazole]", "values": [
      {"measurement": "pK of triazole", "setting": "[1]; unsubstituted triazole", "result": 9.95}
    ]},
    {"smiles": "OCCCn1cc(-c2ccccn2)nn1", "note": "[3-(4-(pyridine-2-yl)-1H-1,2,3-triazol-1-yl-propan-1-ol]", "values": [
      {"measurement": "pK of triazole", "setting": "[1]; 1,2,3-triazole-pyridines, previously reported", "result": 3.40}
    ]},
    {"smiles": "Nc1nc[nH]n1", "note": "[3-amino-1,2,4-triazole]", "values": [
      {"measurement": "pK of triazole", "setting": "[1]; substituted triazole, previously reported", "result": 4.20}
    ]},
    {"smiles": "O=P(O)(O)C(Nc1nc[nH]n1)P(=O)(O)O", "note": "[Compound 1, 1,2,4-Triazolyl-3-yl-Aminomethylenebisphosphonic Acid]", "values": [
      {"measurement": "pK1(HL) amine", "setting": "[2]", "result": "11.52(3)"},
      {"measurement": "pK2(H2L) phosphonate", "setting": "[2]", "result": "9.62(3)"},
      {"measurement": "pK3(H3L) phosphonate", "setting": "[2]", "result": "6.54(4)"},
      {"measurement": "pK5(H5L) phosphonate", "setting": "[2]", "result": "1.48(4)"},
      {"measurement": "pK2(H2L) phosphonate", "setting": "[2]; listed as compound 1", "result": 9.62},
      {"measurement": "pK3(H3L) phosphonate", "setting": "[2]; listed as compound 1", "result": 6.54},
      {"measurement": "pK4(H4L) triazole", "setting": "[2]; listed as compound 1", "result": 4.22},
      {"measurement": "pK5(H5L) phosphonate", "setting": "[2]; listed as compound 1", "result": 1.48},
      {"measurement": "IC50", "setting": "[3]", "result": 25, "unit": "µM"},
      {"measurement": "IC50", "setting": "[3]; Mus musculus, Macrophage, 72 h", "result": "24.9 ± 5.17", "unit": "µM"},
      {"measurement": "pK1(HL) amine", "setting": "[4]", "result": "11.68(2)"},
      {"measurement": "pK2(H2L) phosphonate", "setting": "[4]", "result": "9.32(5)"},
      {"measurement": "pK3(H3L) phosphonate", "setting": "[4]", "result": "6.15(6)"},
      {"measurement": "pK4(H4L) triazole", "setting": "[4]", "result": "4.16(6)"},
      {"measurement": "pK5(H5L) phosphonate", "setting": "[4]", "result": "0.67(6)"},
      {"measurement": "pK4(H4L) triazole", "setting": "[4]; listed as compound 1", "result": 4.16}
    ]},
    {"smiles": "CCn1cnc(NC(P(=O)(O)O)P(=O)(O)O)n1", "note": "[Compound 2]", "values": [
      {"measurement": "pK1(HL) amine", "setting": "[2]", "result": "10.81(1)"},
      {"measurement": "pK2(H2L) phosphonate", "setting": "[2]", "result": "9.43(1)"},
      {"measurement": "pK3(H3L) phosphonate", "setting": "[2]", "result": "6.73(1)"},
      {"measurement": "pK5(H5L) phosphonate", "setting": "[2]", "result": "1.69(1)"},
      {"measurement": "IC50", "setting": "[3]; Mus musculus, Macrophage, 72 h", "result": "30.6 ± 4.64", "unit": "µM"},
      {"measurement": "pK2(H2L) phosphonate", "setting": "[4]", "result": "9.56(2)"},
      {"measurement": "pK3(H3L) phosphonate", "setting": "[4]", "result": "5.90(2)"},
      {"measurement": "pK4(H4L) triazole", "setting": "[4]", "result": "3.32(2)"},
      {"measurement": "pK4(H4L) triazole", "setting": "[4]; listed as compound 2", "result": 3.32}
    ]},
    {"smiles": "O=P(O)(O)C(NC1CCCCCC1)P(=O)(O)O", "note": "[incadronic acid, reference compound]", "values": [
      {"measurement": "IC50", "setting": "[3]; Mus musculus, Macrophage, 72 h", "result": "47.9 ± 1.39", "unit": "µM"}
    ]},
    {"smiles": "O=P(O)(O)C(O)(Cn1ccnc1)P(=O)(O)O", "note": "[zoledronic acid, reference compound]", "values": [
      {"measurement": "IC50", "setting": "[3]; Mus musculus, Macrophage, 72 h", "result": "24.5 ± 2.23", "unit": "µM"}
    ]}
  ]
}
